Experiments:
Hyaluronidase (HAase) [1] = molecular target: T1, Hyaluronidase (HAase); test: modified Morgan-Elson colorimetric assay (DMAB, […] nm); format: biochemical; conditions: hyaluronic acid sodium 0.5 mg mL^−1; HAase 500 U mL^−1; CaCl2 12.5 mM; 37 °C
T1 construct: gene SPAM1; ovine testis or bacterial possible; human HYAL1 2PE4 was only the docking model

Hyaluronidase (HAase) [2] = tested on: T1, Hyaluronidase (HAase); test: intrinsic fluorescence quenching, excitation […] nm; format: binding; conditions: 293 K; sodium phosphate buffer pH 7.4; HAase 2.0 × 10^−6 mol L^−1; n 1.0623; double-log

IC50 (Hyaluronidase (HAase) [1]): 680 ± 43 µM
K a (Hyaluronidase (HAase) [2]): 39537 L/mol
Structure (SMILES): O=C1C[C@@H](c2ccc(O)cc2)Oc2cc(O)ccc21 [liquiritigenin]

From PMC4899609, “Spectroscopic and Docking Studies on the Binding of Liquiritigenin with Hyaluronidase for Antiallergic Mechanism” (Scientifica, 2016)
